The values below come from ChEMBL document CHEMBL2034954, “Synthesis and antimycobacterial activity of novel 1,3-dimethylisocyanurate derivatives” (Eur J Med Chem, 2012).

For test [1], the system named is Mycobacterium tuberculosis. Nature of the test: Antitubercular activity against multidrug-resistant Mycobacterium tuberculosis clinical isolate assessed as number of colonies at 1 ug/mL by radiometric growth assay. It counts as functional.
Test [2] relates to Mycobacterium tuberculosis. Nature of the test: Antitubercular activity against multidrug-resistant Mycobacterium tuberculosis clinical isolate assessed as number of colonies at 10 ug/mL by radiometric growth assay. It counts as functional.
For test [3], the system named is Mycobacterium tuberculosis. Nature of the test: Antitubercular activity against multidrug-resistant Mycobacterium tuberculosis clinical isolate at 40 ug/mL by radiometric growth assay. The test is classed as functional, organism-based.
Test [4] deals with Mycobacterium tuberculosis. Nature of the test: Antitubercular activity against multidrug-resistant Mycobacterium tuberculosis clinical isolate at 80 ug/mL by radiometric growth assay. The test is classed as functional, organism-based.
The test system of test [5] is Mycobacterium tuberculosis. Nature of the test: Antitubercular activity against multidrug-resistant Mycobacterium tuberculosis clinical isolate at 10 ug/mL by radiometric growth assay. The test is classed as functional, organism-based.
Test [6] concerns Mycobacterium tuberculosis. Nature of the test: Antitubercular activity against multidrug-resistant Mycobacterium tuberculosis clinical isolate at 1 ug/mL by radiometric growth assay. The test is classed as functional, organism-based.

Each structure is given as a SMILES string. The source made the active and inactive calls. No cut-off for these calls is given here.

Regarding `Cn1c(=O)n(C)c(=O)n(CCCCC[S+]([O-])CC(=O)NN)c1=O` (configuration not stated), the CFU in test [1] amounted to 15; in test [2], 10. In the case of `CO[C@H]1/C=C/O[C@@]2(C)Oc3c(C)c(O)c4c(O)c(c(/C=N/N5CCN(C)CC5)c(O)c4c3C2=O)NC(=O)/C(C)=C\C=C\[C@H](C)[C@H](O)[C@@H](C)[C@@H](O)[C@@H](C)[C@H](OC(C)=O)[C@@H]1C`, the result in test [3] and in test [4] was inactive. `NNC(=O)c1ccncc1` [ISONIAZID]: the result in test [5] and in test [6] was inactive. As for `CC1COc2c(N3CCN(C)CC3)c(F)cc3c(=O)c(C(=O)O)cn1c23` (configuration not stated), the outcome in test [5] was inactive.
